Assay results reported in patent US20220281822A1, “PLANT GROWTH REGULATOR AND METHOD FOR PROMOTING PLANT GROWTH” (Kureha Corporation, priority 2019, published 2022).

What was measured:
Format in all cases: in vivo
[1] = test system: Arabidopsis thaliana (Col-O); experiment: Seed yield of Arabidopsis thaliana at different compound concentrations (Examples 2 to 4); conditions: for Seed yield Ratio: 85th day, Comparative Example 6 (distilled water) set to 1; for Seed yield: harvested on 85th day after seeding, 22° C.
Protocol: One individual Arabidopsis thaliana (Col-O) was sown in a plastic pot having a diameter of 60 mm and a height of 55 mm. Plastic deep dishes each having a diameter of 160 mm and a height of 28 mm were prepared, and six pots were respectively placed therein. As soil, 45 mL of vermiculite, 22.5 mL of granular soil (JA Granular Kumiai Synthetic Soil No. 3), and 22.5 mL of vermiculite were placed in each pot in this order.
The procedure was the same as in Example 1, except that the room temperature was set to 22° C.
On the 85th day after seeding, seeds were harvested, and the seed yield (mg/plant) was measured.
The same operation as in Example 2 was carried out except that the concentration of L-(+)-ergothioneine aqueous solution was set to 0.1 mM.
The same operation as in Example 2 was carried out except that the concentration of L-(+)-ergothioneine aqueous solution was set to 0.01 mM. […]
The same operation as in Example 2 was carried out except that the L-(+)-ergothioneine aqueous solution was replaced with distilled water.
(§1) The ratio of “grass height” and “flowers and fruits” for Example 1, Comparative Example 1, and Comparative Example 2 to the results of Comparative Example 2 are shown in Table 1 as “Ratio”, respectively. The “seed yield” for Examples 2 to 4 and Comparative Examples 3 to 6 are shown as “Ratio” in Table 2, where the value for Comparative Example 6 is set to 1. The “seed yield” for Examples 5 and 6 and Comparative Examples 7 and 8 are shown as “Ratio” in Table 3, where the value for Comparative Example 8 is set to 1.

[2] = test system: Arabidopsis thaliana (Col-O); experiment: Seed yield of Arabidopsis thaliana at different times of treatment (Examples 5 and 6); conditions: 1 mM; for Seed yield: harvested on 82nd day, 22° C.; for Seed yield Ratio: 82nd day, Comparative Example 8 (distilled water) set to 1
Protocol: The same operation as in Example 2 was carried out.
The same operation as in Example 1 was carried out except that the room temperature was set at 22° C. and L-(+)-ergothioneine was added 2 weeks after seeding, more specifically on the 8th, 10th, 12th, and 14th days.
On the 82nd day after seeding, seeds were harvested, and the seed yield (mg/plant) was measured.
The same operation as in Example 5 was carried out except that L-(+)-ergothioneine was added 4 weeks after seeding, more specifically on the 22nd, 24th, 26th, and 28th days.
The same operation as in Example 5 was carried out except that oxidized glutathione was used in place of L-(+)-ergothioneine in the aqueous solution and added 4 weeks after seeding, more specifically on the 22nd, 24th, 26th, and 28th days.
The same operation as in Example 5 was carried out except that the L-(+)-ergothioneine aqueous solution was replaced with distilled water.
as §1

[3] = test system: Arabidopsis thaliana (Col-O); experiment: Plant height and number of flowers and fruits of Arabidopsis thaliana after treatment via water supply (Example 1); conditions: for Flower and Fruit Ratio / Plant height Ratio: 1 mM, 37th day after seeding, ratio to Comparative Example 2 (distilled water); for Flower and Fruit / Plant height: 50 mL of 1 mM aqueous solution on 21st, 23rd, 25th, 27th days after seeding, measured on 37th day, 25° C.
Protocol: Arabidopsis thaliana (Col-O) was sown in plastic pots having a width of 65 mm, a depth of 65 mm, and a height of 70 mm, three individuals per pot. Plastic deep dishes each having a diameter of 160 mm and a height of 28 mm were prepared, and three pots were respectively placed therein. As soil, 100 mL of vermiculite, 50 mL of granular soil (JA Granular Kumiai Synthetic Soil No. 3), and 50 mL of vermiculite were placed in each pot in this order.
In a thermostatic chamber set at room temperature of 25° C., the light period was 16 hours and the dark period was 8 hours. The light conditions were set using a fluorescent lamp (PLANT FLEC, 40 W LED fluorescent lamp for plant growth, electric bulb color, available from Nippon Medical and Chemical Instruments Co., Ltd.) so that the light intensity was 5000 lx in the central part under the fluorescent lamp irradiation. Water supply was done from the bottom, and the water level was set at about 5 mm. Ergothioneine treatment was started 4 weeks after seeding. More specifically, on the 21st, 23rd, 25th, and 27th days after seeding, 50 mL of a 1 mM L-(+)-ergothioneine (available from Cayman Chemical) aqueous solution was added instead of water supply.
On the 37th day after seeding, the plant height (cm) and the number of flowers and fruits per Arabidopsis thalianawere measured.
The same operation as in Example 1 was carried out except that L-(+)-ergothioneine in the aqueous solution was replaced with oxidized glutathione (available from Wako Pure Chemical Industries, Ltd.).
The same operation as in Example 1 was carried out except that the L-(+)-ergothioneine aqueous solution was replaced with distilled water.
as §1

[4] = time of treatment 4 weeks after seeding (22nd, 24th, 26th, 28th days)
[5] = time of treatment 4 weeks after seeding

Row | Compound | Seed yield Ratio ([1]; compound concentration 1 mM) | Seed yield ([1]; compound concentration 1 mM) | Seed yield [2, 4] | Seed yield Ratio [2, 5] | Flower and Fruit Ratio [3] | Plant height Ratio [3] | Flower and Fruit [3] | Plant height [3] | Seed yield Ratio ([1]; compound concentration 0.01 mM) | Seed yield ([1]; compound concentration 0.01 mM) | Seed yield Ratio ([1]; compound concentration 0.1 mM) | Seed yield ([1]; compound concentration 0.1 mM) | Seed yield ([2]; time of treatment 2 weeks after seeding (8th, 10th, 12th, 14th days)) | Seed yield Ratio ([2]; time of treatment 2 weeks after seeding)
1 | oxidized glutathione [reference compound] | 1.2 | 100 mg/plant | 92 mg/plant | 1.3 | 1.5 | 1.1 | 22 Number/plant | 24 cm |  |  |  |  |  | 
2 | C[N+](C)(C)[C@@H](Cc1c[nH]c(=S)[nH]1)C(=O)[O-] [L-(+)-ergothioneine] | 1.7 | 142 mg/plant | 114 mg/plant | 1.7 | 1.7 | 1.3 | 26 Number/plant | 29 cm | 1.3 | 109 mg/plant | 1.5 | 130 mg/plant | 140 mg/plant | 2.0
3 | O=C(O)[C@@H]1CCCN1 [L-proline, reference compound] | 1.2 | 102 mg/plant |  |  |  |  |  |  |  |  |  |  |  | 
4 | N[C@@H](CCC(=O)O)C(=O)O [L-glutamic acid, reference compound] | 1.0 | 90 mg/plant |  |  |  |  |  |  |  |  |  |  |  | 
